Usually TGI stands for the concentration giving total growth inhibition.

What all share (assay): DTP human tumour cell line panel, 48 h
Test [1] has as its system SW-620 colon.
Test [2] relates to PC-3 prostate.
The subject of test [3] is KM12 colon.
Test [4] concerns SR leukemia.
For test [5], the system named is OVCAR-4 ovarian.
Test [6] concerns IGROV1 ovarian.
Test [7] deals with CCRF-CEM leukemia.
Test [8] concerns OVCAR-5 ovarian.
Test [9] relates to HT29 colon.
Test [10] deals with UO-31 renal.
The subject of test [11] is NCI-H522 lung.

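Dose response: 5 concentrations. Exposure: 48 h. Format: 96-well plates. Endpoint: linear interpolation; highest concentration if not reached. At the TGI there is no net growth.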 *1 amine or outer side, *2 acyl side, *3 side chain or, on linkers, in order; H or OH if unused. Where a SMILES comes first, the peptide text is derived from it. Bridges are numbered along the chain shown (N, C = ends). Roman numbers before positions name the chains, in order. [ ]: non-standard residue; d: D form. Actinocin(9to1) = Cc1c2oc3c(C)ccc(C(=O)[*:1])c3nc-2c(C(=O)[*:2])c(N)c1=O; Hyp = O=C(O)[CH]1C[CH](O)CN1; NMeV = CN[CH](C(=O)O)C(C)C; Sar = CNCC(=O)O Some results are limits rather than exact numbers.

In the case of `O=C1CC(=O)NC(=NN2C(=O)CSC2C(=O)c2ccco2)N1` (stereo not drawn), the TGI in test [1], in test [2], in test [3], in test [4], in test [5] and in [6] was greater than 100 µM throughout. For the same compound, the concentration for total growth inhibition (TGI) in test [7], in test [8], in test [9], in test [10] and in test [11] was greater than 100 µM each time.

Consider `CCSc1nc(=S)n(-c2ccccc2)c(C)c1C(C)=O`, for which the concentration for total growth inhibition (TGI) in test [1], in test [2], in test [3], in test [4], in test [5] and in test [6] was greater than 100 µM each time. Moreover, the total growth inhibition concentration (TGI) in test [7], in test [8], in [9], in test [10] and in test [11] was greater than 100 µM in each case.

For `O=C(O)c1c2c(cc3c1CC1(Cc4cc5c(cc4C1=O)CCC5)C3)CCC2` (stereo not drawn), the TGI in test [1], in test [2], in test [3], in test [4], in test [5] and in [6] was greater than 100 µM each time. Besides, the TGI in test [7], in [8], in test [9], in [10] and in test [11] was greater than 100 µM in each case.

Consider `CN(C)CCNC(=O)c1cccc2nc3c(C(=O)NCCN(C)C)cccc3nc12`, for which the TGI in test [1] was 12.1 µM; in test [2], 2.67 µM; in test [3] it was 8.82 µM; in test [4] it was 3.6 µM; in [5], 2.24 µM; in test [6] it was greater than 23.3 µM. Moreover, the total growth inhibition concentration (TGI) in test [7] came to 12.7 µM; in test [8], 13.6 µM; in test [9] it was 3.49 µM; in [10], 34.1 µM; in test [11] it was 1.81 µM.

As for `CN(CCCNC(=O)c1nn(C)c2c1Cc1ccccc1-2)CCCNC(=O)c1nn(C)c2c1Cc1ccccc1-2`, the TGI is 27.9 µM in test [1]; 34.1 µM in [2]; 35.4 µM in [3]; greater than 100 µM in [4]; 32.5 µM in test [5]; 35 µM in test [6]. For the same compound, the total growth inhibition concentration (TGI) in test [7] amounted to 10.9 µM; in test [8], 40.8 µM; in test [9], 31.6 µM; in test [10], 5.58 µM; in [11], 40.6 µM.

Take `CC(C)(C)NC(=O)/C(=C\Sc1ccccc1)c1ccccc1`: the TGI in test [1], in [2], in test [3], in test [4], in test [5] and in [6] was greater than 100 µM throughout. For the same compound, the concentration for total growth inhibition (TGI) in test [7] is greater than 100 µM; in test [8] it was greater than 100 µM; in [9], greater than 100 µM; in [10] it was greater than 100 µM; in test [11], greater than 52.1 µM.

Regarding `COc1ccc(NC(C(N)=O)c2cc3cc(Br)ccc3nc2Cl)cc1` (stereo not drawn), the TGI in test [1] is greater than 100 µM; in test [2], greater than 100 µM; in test [3] it was greater than 100 µM; in [4], 51.6 µM; in [5] it was greater than 100 µM; in test [6], greater than 100 µM. In addition, the TGI in [7], in test [8], in test [9], in [10] and in test [11] was greater than 100 µM throughout.

For `CCOC(=O)CCN1C(=O)C(=O)N(c2ccc(OC)cc2)C1=S`, the TGI in test [1], in [2], in test [3], in test [4], in test [5] and in [6] was greater than 100 µM each time. The TGI in [7], in test [8], in test [9], in [10] and in test [11] was greater than 100 µM in each case.

For the compound `COC1=C(C)C(=O)C2=C(C1=O)C1C3CC4=C(C(=O)C(OC)=C(C)C4=O)C(CNC(=O)C(C)O)N3C(C#N)C(C2)N1C` (stereo not drawn), the TGI in test [1] was 0.235 µM; in test [2], 1.74 µM; in test [3], 0.827 µM; in test [4], greater than 100 µM; in test [5], 0.334 µM; in test [6], 1.07 µM. Also, the TGI in [7] was 1.38 µM; in test [8], 0.0888 µM; in [9], less than 0.01 µM; in [10], 0.731 µM; in [11], less than 0.01 µM.

Turning to `CN(C)CCOc1ccc(-c2c(Oc3ccccc3)c(=O)oc3ccccc23)cc1`, the TGI in test [1] was found to be 23.8 µM; in test [2] it was 23.1 µM; in [3] it was 77.8 µM; in [4], 19.4 µM; in [5] it was 59 µM; in test [6], 25.2 µM. The TGI in test [7] worked out at 4.94 µM; in test [8], 29.2 µM; in [9], 25.4 µM; in test [10], 19.9 µM; in test [11] it was 24.1 µM.

On to `Nc1ccc2ccc(N3CCNCC3)nc2n1`, for which the TGI in test [1], in test [2], in test [3], in [4], in [5] and in [6] was greater than 100 µM throughout. The TGI in test [7], in [8], in [9], in [10] and in test [11] was greater than 100 µM each time.

As to `COc1ccc2c(c1)NC1(CCN(CCCC(=O)c3ccc(F)cc3)CC1)N=N2`, the TGI was 57.9 µM in test [1]; greater than 100 µM in test [2]; 41 µM in test [3]; 35.4 µM in test [4]; greater than 100 µM in test [5]; 64 µM in [6]. The TGI in test [7] was 58.5 µM; in [8] it was 61.1 µM; in test [9], 69.4 µM; in [10] it was 57.8 µM; in [11], 33.9 µM.

On to `Nn1c(=O)[nH]c2ncn(Cc3ccccc3)c2c1=O`, for which the TGI in test [1], in test [2], in [3], in [4], in test [5] and in [6] was greater than 100 µM each time. In addition, the TGI in [7], in test [8], in test [9], in test [10] and in [11] was greater than 100 µM throughout.

As to `COC(=O)c1ccccc1/C=C1\Cc2ccc3c(c2C1=O)CCCC3`, the concentration for total growth inhibition (TGI) in test [1], in [2], in [3], in test [4], in test [5] and in [6] was greater than 100 µM each time. Moreover, the TGI in [7], in test [8], in test [9], in [10] and in test [11] was greater than 100 µM throughout.

For `Cc1c2oc3c(C)ccc(C(=O)NC4C(=O)NC(C(C)C)C(=O)N5CC(O)CC5C(=O)N(C)CC(=O)N(C)C(C(C)C)C(=O)OC4C)c3nc-2c(C(=O)NC2C(=O)NC(C(C)C)C(=O)N3CC(O)CC3C(=O)N(C)CC(=O)N(C)C(C(C)C)C(=O)OC2C)c(N)c1=O` (stereo not drawn) (I: TV[Hyp][Sar][NMeV] / II: TV[Hyp][Sar][NMeV]; ester I:1-I:C, II:1-II:C; linker I:N-II:N via Actinocin(9to1); configuration not given here), the TGI in [1], in test [2], in [3], in [4], in test [5] and in [6] was greater than 1 µM each time. Further, the TGI in test [7], in test [8], in test [9], in test [10] and in test [11] was greater than 1 µM each time.

In the case of `CN1Cc2cc(O)c(O)cc2C(O)C1` (stereo not drawn), the TGI in test [1], in [2], in test [3], in test [4], in test [5] and in [6] was greater than 100 µM in each case. The TGI in [7], in test [8], in test [9], in [10] and in [11] was greater than 100 µM in each case.

As to `Cc1cc2c(cc1C)C(=O)C1(C2)Cc2cc3c(cc2C1=O)CCC3` (stereo not drawn), the concentration for total growth inhibition (TGI) in test [1], in [2], in [3], in test [4], in [5] and in [6] was greater than 100 µM each time. The TGI in test [7], in test [8], in test [9], in test [10] and in [11] was greater than 100 µM in each case.

Turning to `N/C(=N\Nc1ccc(Cl)cc1)c1cnccn1`, the TGI in test [1], in test [2], in [3], in test [4], in test [5] and in test [6] was greater than 100 µM throughout. Further, the TGI in test [7], in test [8], in [9], in test [10] and in test [11] was greater than 100 µM in each case.
